Holding throughout (conditions): trans-stimulation, solute 2 mM
Assay [1] addresses T1, PfNT1 (Plasmodium falciparum, UniProt Q8IDM6).
T1 construct: expressed in transfected cells; host or cells: Xenopus laevis oocytes (stage V-VI), cRNA-injected
Description: cell-based. The format is cell-based. The essentials: (§1)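 Oocytes (ten per treatment, ≥4 independent frogs/days) were preloaded by injecting VF-6 in 25 nL ND96 at pH 5.0, 5.5, 6.0 or 7.0, or Na^+-free choline buffer, then uptake run 1.5 h, 27.5 °C, ND96 pH 5.5 by default. Internal concentrations assumed ~400 nL oocyte volume.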

The target of assay [2] is PfCRT^Ecu1110 (Plasmodium falciparum, UniProt Q9N623, A220S/I356L/K76T/N326D). Description: cell-based. It counts as cell-based. In a few lines: as §1
Chain of PfCRT^Ecu1110 (Q9N623 whole entry A220S/I356L/K76T/N326D): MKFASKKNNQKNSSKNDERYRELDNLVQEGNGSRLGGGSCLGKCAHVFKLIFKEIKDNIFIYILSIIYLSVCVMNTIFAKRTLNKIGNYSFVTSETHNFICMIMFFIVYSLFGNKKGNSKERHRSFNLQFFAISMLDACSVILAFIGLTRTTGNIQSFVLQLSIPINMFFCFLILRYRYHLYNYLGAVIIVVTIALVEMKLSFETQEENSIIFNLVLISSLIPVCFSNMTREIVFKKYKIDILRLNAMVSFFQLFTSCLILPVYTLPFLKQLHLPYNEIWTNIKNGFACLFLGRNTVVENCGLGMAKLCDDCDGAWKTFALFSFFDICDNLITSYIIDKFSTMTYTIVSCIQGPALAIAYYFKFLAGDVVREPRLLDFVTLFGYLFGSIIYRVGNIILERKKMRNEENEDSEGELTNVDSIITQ
Assay [3] addresses PfCRT^3D7 (Plasmodium falciparum, UniProt Q8IBZ9). The assay can be described thus: cell-based. It counts as cell-based. The essentials: as §1
Assay [4] concerns the target PfCRT^Dd2 (Plasmodium falciparum, UniProt Q9N623, A220S/I356T/K76T/M74I/N326S/N75E/Q271E/R371I). Description: cell-based. The format is cell-based. In a few lines: as §1
Assay [5] concerns non-expressing oocytes. It counts as cell-based, Xenopus laevis. In a few lines:
as §1

Like-named read-outs stand apart in the source and are kept apart here.

Chain of PfCRT^3D7 (Q8IBZ9 59-398): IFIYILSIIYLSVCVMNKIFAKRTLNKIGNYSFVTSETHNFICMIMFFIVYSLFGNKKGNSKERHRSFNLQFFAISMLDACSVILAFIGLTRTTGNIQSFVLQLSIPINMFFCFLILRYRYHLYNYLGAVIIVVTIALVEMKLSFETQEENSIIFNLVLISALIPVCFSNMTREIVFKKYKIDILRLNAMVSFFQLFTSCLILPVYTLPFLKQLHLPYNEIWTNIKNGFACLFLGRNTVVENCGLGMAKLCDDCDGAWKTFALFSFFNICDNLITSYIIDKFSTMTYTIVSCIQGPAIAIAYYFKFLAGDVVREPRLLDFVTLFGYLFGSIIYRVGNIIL
Chain of PfCRT^Dd2 (Q9N623 whole entry A220S/I356T/K76T/M74I/N326S/N75E/Q271E/R371I): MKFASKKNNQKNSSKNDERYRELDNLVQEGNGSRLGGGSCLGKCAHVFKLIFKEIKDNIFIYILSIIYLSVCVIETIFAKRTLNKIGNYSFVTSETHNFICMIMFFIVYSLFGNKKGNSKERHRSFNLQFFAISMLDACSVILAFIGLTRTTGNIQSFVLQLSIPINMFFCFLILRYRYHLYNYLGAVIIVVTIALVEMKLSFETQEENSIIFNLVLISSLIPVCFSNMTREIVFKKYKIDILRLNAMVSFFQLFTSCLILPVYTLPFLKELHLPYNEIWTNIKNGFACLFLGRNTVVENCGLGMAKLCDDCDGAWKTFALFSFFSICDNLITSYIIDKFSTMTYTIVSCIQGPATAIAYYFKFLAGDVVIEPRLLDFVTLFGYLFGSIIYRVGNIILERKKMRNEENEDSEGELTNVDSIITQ
T1 sequence (Q8IDM6 whole entry): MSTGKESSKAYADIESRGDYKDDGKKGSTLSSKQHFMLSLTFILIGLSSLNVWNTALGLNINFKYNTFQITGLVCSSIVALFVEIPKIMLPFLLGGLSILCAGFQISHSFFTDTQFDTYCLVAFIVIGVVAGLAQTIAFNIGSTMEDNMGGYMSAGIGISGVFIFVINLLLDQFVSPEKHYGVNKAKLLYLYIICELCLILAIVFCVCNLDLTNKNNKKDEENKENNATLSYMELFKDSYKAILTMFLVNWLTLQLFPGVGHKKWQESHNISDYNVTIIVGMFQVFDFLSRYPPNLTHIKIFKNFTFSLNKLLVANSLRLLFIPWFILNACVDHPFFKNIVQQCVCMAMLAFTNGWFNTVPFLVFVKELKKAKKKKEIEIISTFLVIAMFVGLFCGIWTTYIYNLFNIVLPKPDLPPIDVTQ

Take DPVN [VF-6-derived peptide]: the “[3H]CQ transport, PfNT1” value in assay [1] (Experiment 1) was 3.52 % PfCRTDd2 control; in assay [1] (Experiment 2) it was 3.38 % PfCRTDd2 control; in assay [1] (Experiment 3) it was 3.26 % PfCRTDd2 control; in assay [1] (Experiment 4), 3.33 % PfCRTDd2 control. Further, the “[3H]CQ transport, PfCRTEcu1110” value in assay [2] (Experiment 1) was 32.63 % PfCRTDd2 control; in assay [2] (Experiment 2) it was 30.52 % PfCRTDd2 control; in assay [2] (Experiment 3) it was 37.36 % PfCRTDd2 control; in assay [2] (Experiment 4) it was 30.52 % PfCRTDd2 control. For the same substance, the “[3H]CQ transport, PfCRT3D7” value in assay [3] (Experiment 1) is listed as 12.64 % PfCRTDd2 control; in assay [3] (Experiment 2) it was 13.46 % PfCRTDd2 control; in assay [3] (Experiment 3) it was 12.14 % PfCRTDd2 control; in assay [3] (Experiment 4), 11.36 % PfCRTDd2 control. Further, the “[3H]CQ transport, PfCRTDd2” value in assay [4] (Experiment 1) came to 100.43 % PfCRTDd2 control; in assay [4] (Experiment 2), 99.77 % PfCRTDd2 control; in assay [4] (Experiment 3), 98.92 % PfCRTDd2 control; in assay [4] (Experiment 4), 101.43 % PfCRTDd2 control. Also, the “[3H]CQ transport, non-expressing oocytes” value in assay [5] (Experiment 1) is listed as 2.53 % PfCRTDd2 control; in assay [5] (Experiment 2) it was 2.64 % PfCRTDd2 control; in assay [5] (Experiment 3), 2.41 % PfCRTDd2 control; in assay [5] (Experiment 4), 2.56 % PfCRTDd2 control.
For DPVNF [VF-6-derived peptide], the “[3H]CQ transport, PfNT1” value turned out to be 3.85 % PfCRTDd2 control in assay [1] (Experiment 1), 3.98 % PfCRTDd2 control in assay [1] (Experiment 2), 3.94 % PfCRTDd2 control in assay [1] (Experiment 3) and 3.99 % PfCRTDd2 control in assay [1] (Experiment 4). Also, the “[3H]CQ transport, PfCRTEcu1110” value in assay [2] (Experiment 1) came out at 45.52 % PfCRTDd2 control; in assay [2] (Experiment 2), 43.68 % PfCRTDd2 control; in assay [2] (Experiment 3), 37.35 % PfCRTDd2 control; in assay [2] (Experiment 4), 43.35 % PfCRTDd2 control. Moreover, the “[3H]CQ transport, PfCRT3D7” value was determined as 17.63 % PfCRTDd2 control in assay [3] (Experiment 1), 14.86 % PfCRTDd2 control in assay [3] (Experiment 2), 18.47 % PfCRTDd2 control in assay [3] (Experiment 3) and 17.33 % PfCRTDd2 control in assay [3] (Experiment 4). Also, the “[3H]CQ transport, PfCRTDd2” value in assay [4] (Experiment 1) worked out at 116.36 % PfCRTDd2 control; in assay [4] (Experiment 2), 119.52 % PfCRTDd2 control; in assay [4] (Experiment 3), 110.63 % PfCRTDd2 control; in assay [4] (Experiment 4), 125.53 % PfCRTDd2 control. The “[3H]CQ transport, non-expressing oocytes” value in assay [5] (Experiment 1) stood at 2.53 % PfCRTDd2 control; in assay [5] (Experiment 2), 2.61 % PfCRTDd2 control; in assay [5] (Experiment 3), 2.41 % PfCRTDd2 control; in assay [5] (Experiment 4), 2.43 % PfCRTDd2 control.
PVNF [VF-6-derived peptide]: the “[3H]CQ transport, PfNT1” value in assay [1] (Experiment 1) is listed as 3.55 % PfCRTDd2 control; in assay [1] (Experiment 2), 3.73 % PfCRTDd2 control; in assay [1] (Experiment 3) it was 3.85 % PfCRTDd2 control; in assay [1] (Experiment 4), 3.52 % PfCRTDd2 control. Moreover, the “[3H]CQ transport, PfCRTEcu1110” value is recorded as 47.86 % PfCRTDd2 control in assay [2] (Experiment 1), 40.15 % PfCRTDd2 control in assay [2] (Experiment 2), 37.75 % PfCRTDd2 control in assay [2] (Experiment 3) and 41.78 % PfCRTDd2 control in assay [2] (Experiment 4). Besides, the “[3H]CQ transport, PfCRT3D7” value in assay [3] (Experiment 1) worked out at 16.17 % PfCRTDd2 control; in assay [3] (Experiment 2), 15.91 % PfCRTDd2 control; in assay [3] (Experiment 3) it was 16.12 % PfCRTDd2 control; in assay [3] (Experiment 4), 16.15 % PfCRTDd2 control. Also, the “[3H]CQ transport, PfCRTDd2” value came out at 115.75 % PfCRTDd2 control in assay [4] (Experiment 1), 122.53 % PfCRTDd2 control in assay [4] (Experiment 2), 112.64 % PfCRTDd2 control in assay [4] (Experiment 3) and 109.74 % PfCRTDd2 control in assay [4] (Experiment 4). Also, the “[3H]CQ transport, non-expressing oocytes” value amounted to 2.32 % PfCRTDd2 control in assay [5] (Experiment 1), 2.21 % PfCRTDd2 control in assay [5] (Experiment 2), 2.25 % PfCRTDd2 control in assay [5] (Experiment 3) and 2.16 % PfCRTDd2 control in assay [5] (Experiment 4).
With VDPVN [VF-6-derived peptide], the “[3H]CQ transport, PfNT1” value in assay [1] (Experiment 1) was determined as 2.85 % PfCRTDd2 control; in assay [1] (Experiment 2), 2.88 % PfCRTDd2 control; in assay [1] (Experiment 3), 2.95 % PfCRTDd2 control; in assay [1] (Experiment 4), 2.89 % PfCRTDd2 control. In addition, the “[3H]CQ transport, PfCRTEcu1110” value in assay [2] (Experiment 1) was found to be 40.67 % PfCRTDd2 control; in assay [2] (Experiment 2) it was 44.84 % PfCRTDd2 control; in assay [2] (Experiment 3), 45.43 % PfCRTDd2 control; in assay [2] (Experiment 4) it was 46.24 % PfCRTDd2 control. The “[3H]CQ transport, PfCRT3D7” value in assay [3] (Experiment 1) stood at 18.56 % PfCRTDd2 control; in assay [3] (Experiment 2), 19.52 % PfCRTDd2 control; in assay [3] (Experiment 3), 15.43 % PfCRTDd2 control; in assay [3] (Experiment 4), 18.35 % PfCRTDd2 control. The “[3H]CQ transport, PfCRTDd2” value is on record as 120.53 % PfCRTDd2 control in assay [4] (Experiment 1), 112.56 % PfCRTDd2 control in assay [4] (Experiment 2), 120.67 % PfCRTDd2 control in assay [4] (Experiment 3) and 119.43 % PfCRTDd2 control in assay [4] (Experiment 4). The “[3H]CQ transport, non-expressing oocytes” value was 2.84 % PfCRTDd2 control in assay [5] (Experiment 1), 2.91 % PfCRTDd2 control in assay [5] (Experiment 2), 2.78 % PfCRTDd2 control in assay [5] (Experiment 3) and 2.94 % PfCRTDd2 control in assay [5] (Experiment 4).

The record behind these values is PMC7413254 (Nature Communications, 2020).
